{"source": "ChEMBL document CHEMBL5614419", "about": "“Discovery of novel BCL6-Targeting PROTACs with effective antitumor activities against DLBCL in vitro and in vivo” (Eur J Med Chem, 2024)", "key": {"[1]": {"assay": "Antitumor activity against human SU-DHL-4 cells xenografted in female nude nu/nu mouse assessed as tumor growth inhibition at 40 mg/kg, ip measured after 21 days by microcaliper based analysis relative to control", "type": "functional, SUD4", "details": "SU-DHL-4, 504 h, time 21 day, read-out: TGI"}, "WI-38 VA13": {"system": "WI-38 VA13", "assay": "(§1) Cytotoxicity against human WI-38 VA13 cells assessed as inhibition in cell growth measured after 6 days by MTT assay", "type": "toxicity, cell-based", "details": "wi-38 va13, 144 h, time 6 day"}, "[2]": {"assay": "as §1", "type": "toxicity, cell-based", "details": "WI-38 VA13 cells"}, "DOHH-2 [3]": {"system": "DOHH-2", "assay": "Antiproliferative activity against BCL6-dependent human DOHH-2 cells assessed as inhibition in cell growth measured after 6 days by MTS assay", "details": "DOHH-2, 144 h"}, "SUD4 [4]": {"system": "SUD4", "assay": "Upregulation of p27 protein level in human SU-DHL-4 cells at 5 uM preincubated for 48 hrs followed by compound elution and measured after 72 hrs by Western blot analysis", "type": "functional, cell-based"}, "[5]": {"target": "T1, Protein cereblon/B-cell lymphoma 6 protein (Homo sapiens, UniProt Q96SW2+P41182)", "T1 sequence (Q96SW2 whole entry, looked up, other chains not shown)": "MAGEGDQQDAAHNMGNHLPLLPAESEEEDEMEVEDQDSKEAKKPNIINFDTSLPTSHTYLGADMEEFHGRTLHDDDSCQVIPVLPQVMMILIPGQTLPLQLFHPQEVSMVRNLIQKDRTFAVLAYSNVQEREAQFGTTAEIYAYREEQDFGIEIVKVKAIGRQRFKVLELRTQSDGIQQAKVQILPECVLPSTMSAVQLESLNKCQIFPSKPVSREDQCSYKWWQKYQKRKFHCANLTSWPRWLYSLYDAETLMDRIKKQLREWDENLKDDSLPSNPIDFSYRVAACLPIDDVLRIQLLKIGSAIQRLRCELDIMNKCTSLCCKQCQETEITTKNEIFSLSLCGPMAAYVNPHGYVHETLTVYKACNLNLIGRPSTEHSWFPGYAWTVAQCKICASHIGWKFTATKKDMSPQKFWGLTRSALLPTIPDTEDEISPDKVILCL", "assay": "PROTAC activity at CRBN/BCL6 in human SU-DHL-4 cells assessed as induction of BCL6 degradation by measuring reduction in protein level at 5 uM measured upto 72 hrs by Western blot analysis", "type": "cell-based"}, "[6]": {"target": "T1, Protein cereblon/B-cell lymphoma 6 protein", "assay": "PROTAC activity at CRBN/BCL6 in human DOHH-2 cells assessed as induction of BCL6 degradation incubated for 48 hrs by Western blot analysis", "type": "cell-based"}, "SUD4 [7]": {"system": "SUD4", "assay": "Upregulation of p27 protein level in human SU-DHL-4 cells incubated for 48 hrs by Western blot analysis", "type": "functional, cell-based", "details": "dose 0.1-10 µM"}, "[8]": {"target": "T1, Protein cereblon/B-cell lymphoma 6 protein", "assay": "PROTAC activity at CRBN/BCL6 in human SU-DHL-4 cells assessed as reduction in half life BCL6 at 1 uM preincubated with compound for 24 hrs followed by CHX addition and measured after 4 hrs by Western blot analysis", "type": "cell-based", "details": "time 28.0 hrs"}, "[9]": {"target": "T1, Protein cereblon/B-cell lymphoma 6 protein", "assay": "PROTAC activity at CRBN/BCL6 in human SU-DHL-4 cells assessed as induction of BCL6 degradation by measuring maximal efficacy incubated for 48 hrs by Western blot analysis relative to control", "type": "cell-based"}, "SUD4 [10]": {"system": "SUD4", "assay": "Antiproliferative activity against BCL6-dependent human SU-DHL-4 cells assessed as inhibition of cell growth at 10 uM measured after 6 days by MTT assay relative to control", "type": "functional", "details": "SU-DHL-4, 144 h, time 6 day"}, "SUD4 [11]": {"system": "SUD4", "assay": "Upregulation of p27 protein level in human SU-DHL-4 cells at 5 uM by Western blot analysis", "type": "functional, cell-based", "details": "time 12-72 hrs, TDE = time-dependent effect"}, "[12]": {"target": "T1, Protein cereblon/B-cell lymphoma 6 protein", "assay": "In vivo PROTAC activity at CRBN/BCL6 in female nude nu/nu mouse model xenografted with human SU-DHL-4 cells assessed as increase in p21 protein level in tumor at 40 mg/kg, ip measured after 5 hrs of last dose by Western blot analysis", "type": "functional, organism-based", "details": "SUD4"}, "SUD4 [13]": {"system": "SUD4", "assay": "Upregulation of CDKN1A mRNA level in human SU-DHL-4 cells at 10 uM incubated for 48 hrs by RT-qPCR analysis", "type": "functional, cell-based"}, "[14]": {"assay": "Tmax in male Sprague-Dawley rat at 10 mg/kg, ip measured upto 24 hrs by LC-MS/MS analysis", "type": "ADME, organism-based", "details": "in vivo"}, "OCI-Ly1": {"system": "OCI-Ly1", "assay": "Antiproliferative activity against BCL6-dependent human OCI-Ly1 cells assessed as inhibition in cell growth measured after 6 days by MTT assay", "details": "OCI-Ly1, 144 h"}, "SUD4 [15]": {"system": "SUD4", "assay": "Effect on BCL6 mRNA level in human SU-DHL-4 cells at 10 uM incubated for 48 hrs by RT-qPCR analysis", "type": "functional, cell-based"}, "[16]": {"assay": "AUC (0 to infinity) in male Sprague-Dawley rat at 10 mg/kg, ip measured upto 24 hrs by LC-MS/MS analysis", "type": "ADME, organism-based", "details": "in vivo"}, "[17]": {"target": "T1, Protein cereblon/B-cell lymphoma 6 protein", "assay": "PROTAC activity at CRBN/BCL6 in human Ibrutinib resistant DOHH2 cells assessed as induction of BCL6 degradation at 0.1 to 10 uM incubated for 48 hrs by Western blot analysis", "type": "cell-based", "details": "dose 0.1-10 µM"}, "SUD4 [18]": {"system": "SUD4", "assay": "Induction of cell cycle arrest in human SU-DHL-4 cells assessed as increase in G1 phase cell population at 1 uM measured after 72 hrs by flow cytometry analysis (reference value: 61.4%)", "type": "functional"}, "[19]": {"target": "T1, Protein cereblon/B-cell lymphoma 6 protein", "assay": "PROTAC activity at CRBN/BCL6 in BCL6-dependent human SU-DHL-4 cells assessed as induction of BCL6 degradation by measuring degradation rate at 1 uM incubated for 48 hrs by Western blot analysis relative to control", "type": "cell-based"}, "[20]": {"target": "T1, Protein cereblon/B-cell lymphoma 6 protein", "assay": "PROTAC activity at CRBN/BCL6 in human DOHH-2 cells assessed as induction of BCL6 degradation by measuring maximal efficacy incubated for 48 hrs by Western blot analysis relative to control", "type": "cell-based"}, "DOHH-2 [21]": {"system": "DOHH-2", "assay": "Synergistic antiproliferative activity against human DOHH-2 cells assessed as combination index measured after 6 days in presence of Ibrutinib by MTT assay", "type": "functional", "details": "time 6 day"}, "[22]": {"assay": "Cmax in male Sprague-Dawley rat at 10 mg/kg, ip measured upto 24 hrs by LC-MS/MS analysis", "type": "ADME, organism-based", "details": "in vivo"}, "SUD4 [23]": {"system": "SUD4", "assay": "Synergistic antiproliferative activity against human SU-DHL-4 cells assessed as combination index measured after 6 days in presence of Ibrutinib by MTT assay", "type": "functional", "details": "time 6 day"}, "[24]": {"assay": "MRT (0 to t) in male Sprague-Dawley rat at 20 mg/kg, po measured upto 24 hrs by LC-MS/MS analysis", "type": "ADME, organism-based", "details": "in vivo"}, "SUD4 [25]": {"system": "SUD4", "assay": "Induction of cell cycle arrest in human SU-DHL-4 cells assessed as accumulation of cells at G1 phase incubated for 72 hrs by flow cytometry analysis", "type": "functional, cell-based", "details": "dose 0.1-10 µM"}, "HEK-293T": {"system": "HEK-293T", "assay": "(§2) Cytotoxicity against HEK293T cells assessed as inhibition in cell growth measured after 6 days by MTT assay", "type": "toxicity, cell-based", "details": "human, hek-293t, 144 h; time 6 day"}, "[26]": {"assay": "as §2", "type": "toxicity, cell-based, HEK-293T", "details": "human, HEK293T cells"}, "[27]": {"target": "T1, Protein cereblon/B-cell lymphoma 6 protein", "assay": "PROTAC activity at CRBN/BCL6 in human SU-DHL-4 cells assessed as induction of BCL6 degradation at 5 uM preincubated with MG-132 for 2 hrs followed by compound addition and measured after 36 hrs by Western blot analysis", "type": "cell-based"}, "SUD4 [28]": {"system": "SUD4", "assay": "Induction of cell cycle arrest in human SU-DHL-4 cells assessed as G1 phase arrest at 500 nM in presence of Ibrutinib incubated for 72 hrs by flow cytometry", "type": "functional, cell-based"}, "[29]": {"target": "T1, Protein cereblon/B-cell lymphoma 6 protein", "assay": "In vivo PROTAC activity at CRBN/BCL6 in female nude nu/nu mouse model xenografted with human SU-DHL-4 cells assessed as increase in p27 protein level in tumor at 40 mg/kg, ip measured after 5 hrs of last dose by Western blot analysis", "type": "functional, organism-based", "details": "SUD4"}, "SUD4 [30]": {"system": "SUD4", "assay": "Upregulation of p21 protein level in human SU-DHL-4 cells at 5 uM by Western blot analysis", "type": "functional, cell-based", "details": "time 12-72 hrs, TDE = time-dependent effect"}, "[31]": {"assay": "AUC (0 to t) in male Sprague-Dawley rat at 20 mg/kg, po measured upto 24 hrs by LC-MS/MS analysis", "type": "ADME, organism-based", "details": "in vivo"}, "[32]": {"assay": "Antitumor activity against human SU-DHL-4 cells xenografted in female nude nu/nu mouse assessed as tumor growth inhibition at 10 mg/kg, ip measured after 21 days by microcaliper based analysis relative to control", "type": "functional, SUD4", "details": "SU-DHL-4, 504 h, time 21 day, read-out: TGI"}, "[33]": {"target": "T1, Protein cereblon/B-cell lymphoma 6 protein", "assay": "PROTAC activity at CRBN/BCL6 in human SU-DHL-4 cells assessed as induction of BCL6 degradation incubated for 48 hrs by Western blot analysis", "type": "cell-based"}}, "note": "pIC50: −log10 of the molar value. Active and inactive are the calls of the source. No cut-off for these calls is given here.", "data": [{"molecule": "COc1cc(Nc2nc(N3CCN(CCOCCNc4cccc5c4C(=O)N(C4CCC(=O)NC4=O)C5=O)CC3)ncc2F)ccc1NC(=O)c1ccc(C2=CCCC2)s1", "note": "(stereo not drawn)", "values": [{"measurement": "inhibition in vivo at 40 mg/kg", "setting": "[1]", "value": 71.8, "unit": "%"}, {"measurement": "Activity", "setting": "WI-38 VA13", "value": "Dose-Dependent Effect"}, {"measurement": "IC50 at 6 days", "setting": "[2]", "value": "> 10000", "unit": "nM"}, {"measurement": "pIC50", "setting": "DOHH-2 [3]", "value": 7.25}, {"measurement": "Activity", "setting": "SUD4 [4]", "value": "Active"}, {"measurement": "Activity", "setting": "[5]", "value": "Active"}, {"measurement": "Activity", "setting": "[6]", "value": "Dose-Dependent Effect"}, {"measurement": "DC50", "setting": "[6]", "value": 558, "unit": "nM"}, {"measurement": "Activity", "setting": "SUD4 [7]", "value": "Dose-Dependent Effect"}, {"measurement": "Activity", "setting": "[8]", "value": "Active"}, {"measurement": "Emax", "setting": "[9]", "value": 93, "unit": "%"}, {"measurement": "inhibition at 10 µM", "setting": "SUD4 [10]", "value": 92.6, "unit": "%"}, {"measurement": "Activity", "setting": "SUD4 [11]", "value": "Tde"}, {"measurement": "Activity", "setting": "[12]", "value": "Active"}, {"measurement": "Activity", "setting": "SUD4 [13]", "value": "Active"}, {"measurement": "Tmax", "setting": "[14]", "value": 2.67, "unit": "h"}, {"measurement": "pIC50", "setting": "OCI-Ly1", "value": 5.86}, {"measurement": "Activity", "setting": "SUD4 [15]", "value": "inactive"}, {"measurement": "AUC(0-inf)", "setting": "[16]", "value": 33900, "unit": "ng·h/mL"}, {"measurement": "Activity", "setting": "[17]", "value": "Active"}, {"measurement": "Activity", "setting": "SUD4 [18]", "value": 86.7, "unit": "%"}, {"measurement": "Activity", "setting": "[19]", "value": 81.8, "unit": "%"}, {"measurement": "Emax", "setting": "[20]", "value": 93.7, "unit": "%"}, {"measurement": "CI", "setting": "DOHH-2 [21]", "value": 0.2}, {"measurement": "Cmax", "setting": "[22]", "value": 3820, "unit": "ng/mL"}, {"measurement": "CI", "setting": "SUD4 [23]", "value": 0.5}, {"measurement": "MRT last at 24 h", "setting": "[24]", "value": 2.48, "unit": "h"}, {"measurement": "Activity", "setting": "SUD4 [25]", "value": "Dose-Dependent Effect"}, {"measurement": "Activity", "setting": "HEK-293T", "value": "Dose-Dependent Effect"}, {"measurement": "IC50 at 6 days", "setting": "[26]", "value": "> 10000", "unit": "nM"}, {"measurement": "Activity", "setting": "[27]", "value": "inactive"}, {"measurement": "Activity", "setting": "SUD4 [28]", "value": "Active"}, {"measurement": "Activity", "setting": "[29]", "value": "Active"}, {"measurement": "Activity", "setting": "SUD4 [30]", "value": "Tde"}, {"measurement": "AUC(0-t) at 24 h", "setting": "[31]", "value": 2290, "unit": "ng·h/mL"}, {"measurement": "inhibition in vivo at 10 mg/kg", "setting": "[32]", "value": 22.2, "unit": "%"}, {"measurement": "Activity", "setting": "[33]", "value": "Dose-Dependent Effect"}, {"measurement": "DC50", "setting": "[33]", "value": 676, "unit": "nM"}]}]}
